According to patent US20180028622A1, “TREATMENT OF OSTEOPOROSIS” (Entera Bio Ltd., priority 2015, published 2018):
Where two headings read alike, the source gives them in different places. Blank lines part the entries; values can stand above or below the compound they belong to.

Legend:
[1] = Dissolution test of tablets in simulated gastric buffer, released SNAC by HPLC; format: physicochemical; conditions: tablet with 100 mg sodium bicarbonate vs tablet without; simulated gastric buffer pH 2.0, 37° C.
Protocol: The tablets were in a form of a homogeneous mixture.
Each tablet formulation was subjected to a dissolution test in 100 ml of simulated gastric buffer (without pepsin), pH 2.0, at 37° C., according to USP 23 Apparatus 2 (paddle) with 50 rotations per minute. The amount of released SNAC in each sample was determined chromatographically, using an HPLC apparatus with Cosmosil™ 5 C18-MS-II (4.6 ID×250 mm) column. Mobile phase consisted of 50% acetonitrile and 50% phosphoric acid solution (0.1%). Flow rate was 1 ml/minute and injection volume was 25 μl. Amount of released SNAC was calculated as a percentage of the amount of SNAC in the formulation.

[2] = Open label pharmacokinetic study of oral teriparatide tablet, two visits; format: in vivo, human; conditions: for Tmax: human, plasma, po, 0.75 mg; for Tmax / Cmax after 1st administration / Cmax after 2nd administration: oral tablet 0.75 mg teriparatide with SNAC and SBTI
Protocol: An open label comparative pharmacokinetic study was performed in healthy volunteers over the course of 3 months. Each volunteer received—in each of two visits—the same oral tablet containing 0.75 mg of teriparatide, a recombinant form of parathyroid hormone (1-34).
The formulation was composed of teriparatide (0.75 mg), SNAC (sodium 8-N-(2-hydroxybenzoyl)aminocaprylate), soybean trypsin inhibitor (SBTI) and a small amount of magnesium stearate.
Tablets were administered in the morning after an 8-hour overnight fast and immediately followed by 150 ml of water. At each visit a standard meal was provided 3 hours after drug administration. […] There was a two weeks period between the visits.
(§1) To determine parathyroid hormone(1-34) (PTH(1-34)) concentrations, blood samples (4 ml each) were drawn via an indwelling catheter from the forearm vein at predetermined time points during each visit. The cannula was flushed with 1.5 ml normal saline after each sampling. In addition, to avoid sample dilution, 1 ml of blood was drawn and discarded before the next sample. The blood samples were taken at following times: baseline (predose), 10 minutes, 15 minutes, 20 minutes, 30 minutes, 45 minutes, 60 minutes, 75 minutes, 90 minutes, 105 minutes, 2 hours, 3 hours, 4 hours and 5 hours post-administration. Each blood sample was collected into a single tube containing EDTA (ethylenediaminetetraacetic acid) and placed on ice. Within 15 minutes of blood collection, samples were centrifuged for 10 minutes at 4° C. (2500 rotations per minute) and the plasma was separated and divided into two or three aliquots. Each aliquot was transferred into appropriately labeled polypropylene tubes and stored at approximately −20° C. pending analysis. PTH(1-34) levels were measured using an IDS-iSYS automated assay for the measurement of intact PTH(1-34) in human plasma or serum.

[3] = tested on: cAMP, a known marker of PTH activity; assay: Plasma cAMP levels after oral or subcutaneous teriparatide; format: in vivo, human
Protocol: In addition, plasma levels of cAMP, a known marker of PTH activity, were determined in order to confirm biological activity of administered PTH. cAMP plasma levels were measured following oral administration of 680 μg teriparatide or subcutaneous injection of 20 μg teriparatide, as described hereinabove.

[4] = Phase I clinical study of oral teriparatide formulations vs subcutaneous injection, plasma PTH(1-34); format: in vivo, human
Protocol: A Phase I clinical study of exemplary oral formulations comprising teriparatide (parathyroid hormone (1-34)) was conducted at the Hadassah Clinical Research Center. 42 healthy volunteers were included throughout the study.
The formulation was composed of teriparatide (200, 400, 680, 1400 or 1800 μg), SNAC (sodium 8-N-(2-hydroxybenzoyl) aminocaprylate), soybean trypsin inhibitor and magnesium stearate.
Tablets were administered in the morning after an 8-hour overnight fast and immediately followed by 150 ml of water. At each visit a standard meal was provided 3 hours after drug administration.
as §1, with “hormone” for “hormone(1-34) (PTH(1-34))”, “points.” for “points during each visit.”, “(predose),” for “(predose), 10 minutes,”, “15” for “15 minutes, 20”
Oral administration of teriparatide was performed as described hereinabove at doses of 200, 400, 680, 1400 or 1800 μg. The Cmax of PTH(1-34) for each orally administered dose was compared with the Cmax of PTH(1-34) for subcutaneous injection of 20 μg teriparatide.

[5] = Pharmacokinetic study of oral teriparatide tablet with water or sodium bicarbonate solution; format: in vivo, human; conditions: oral tablet 0.75 mg with 150 ml of 3 mg/ml sodium bicarbonate solution
Protocol: An open label comparative pharmacokinetic study was performed on ten healthy volunteers. On different visits, each volunteer received the same oral tablet containing 0.75 mg of teriparatide, a recombinant form of parathyroid hormone (1-34) (PTH(1-34)). In the first visit, the tablet was administered with 150 ml water, whereas in the second visit the tablet was administered with 150 ml of 3 mg/ml sodium bicarbonate aqueous solution.
The formulation was composed of teriparatide (0.75 mg), SNAC (sodium 8-N-(2-hydroxybenzoyl) aminocaprylate), soybean trypsin inhibitor (SBTI) and a small amount of magnesium stearate.
Tablets were administered in the morning after an 8-hour overnight fast. At each visit a standard meal was provided 3 hours after drug administration. […] There was a two week period between the two visits.
To determine PTH(1-34) concentrations, blood samples were drawn and PTH(1-34) levels were measured using an IDS-iSYS automated assay, using procedures described in Example 1 hereinabove. Relative absorption was determined based on the AUC (area under curve) parameter.

dissolution (release) of SNAC from tablet [1]: considerably enhanced the dissolution
SMILES: O=C(O)CCCCCCCNC(=O)c1ccccc1O [SNAC, sodium 8-N-(2-hydroxybenzoyl)aminocaprylate]

Tmax ([2]; subject A, fasted, plasma PTH(1-34), read-out: Tmax after 1st administration (converted)): 15 min
Tmax ([2]; subject A, two weeks after 1st, read-out: Tmax after 2nd administration (converted)): 20 min
Tmax ([2]; subject B, fasted, plasma PTH(1-34), read-out: Tmax after 1st administration (converted)): 10 min
Tmax ([2]; subject B, two weeks after 1st, read-out: Tmax after 2nd administration (converted)): 20 min
Tmax ([2]; subject C, fasted, plasma PTH(1-34), read-out: Tmax after 1st administration (converted)): 10 min
Tmax ([2]; subject C, two weeks after 1st, read-out: Tmax after 2nd administration (converted)): 20 min
time for plasma levels to return to baseline levels after tablet administration ([2]; oral tablet 0.75 mg): ≤ 60 min
Cmax between different administrations in a given subject ([2]; oral tablet 0.75 mg, two administrations two weeks apart): relatively constant
Cmax after 1st administration ([2]; subject A, fasted, plasma PTH(1-34)): 195 picogram/ml
Cmax after 2nd administration ([2]; subject A, two weeks after 1st): 283 picogram/ml
Cmax after 1st administration ([2]; subject B, fasted, plasma PTH(1-34)): 124 picogram/ml
Cmax after 2nd administration ([2]; subject B, two weeks after 1st): 116 picogram/ml
Cmax after 1st administration ([2]; subject C, fasted, plasma PTH(1-34)): 35 picogram/ml
Cmax after 2nd administration ([2]; subject C, two weeks after 1st): 36 picogram/ml
decline of PTH levels following oral administration compared with subcutaneous administration ([4]; oral 1800 μg vs subcutaneous 20 μg): declined considerably more rapidly
Cmax of PTH(1-34) following oral administration, relation to dose ([4]; oral 200, 400, 680, 1400 or 1800 μg): proportional to the dose
oral dose providing a Cmax equivalent to subcutaneous administration of 20 μg teriparatide ([4]; oral tablet with SNAC and soybean trypsin inhibitor): roughly 750 μg
increase of absorption (AUC) in comparison with co-administration with water [5]: about 35%
SMILES: CC[C@H](C)[C@H](NC(=O)[C@H](CCC(=O)O)NC(=O)[C@H](CO)NC(=O)[C@@H](NC(=O)[C@@H](N)CO)C(C)C)C(=O)N[C@@H](CCC(N)=O)C(=O)N[C@@H](CC(C)C)C(=O)N[C@@H](CCSC)C(=O)N[C@@H](Cc1cnc[nH]1)C(=O)N[C@@H](CC(N)=O)C(=O)N[C@@H](CC(C)C)C(=O)NCC(=O)N[C@@H](CCCCN)C(=O)N[C@@H](Cc1cnc[nH]1)C(=O)N[C@@H](CC(C)C)C(=O)N[C@@H](CC(N)=O)C(=O)N[C@@H](CO)C(=O)N[C@@H](CCSC)C(=O)N[C@@H](CCC(=O)O)C(=O)N[C@@H](CCCN=C(N)N)C(=O)N[C@H](C(=O)N[C@@H](CCC(=O)O)C(=O)N[C@@H](Cc1c[nH]c2ccccc12)C(=O)N[C@@H](CC(C)C)C(=O)N[C@@H](CCCN=C(N)N)C(=O)N[C@@H](CCCCN)C(=O)N[C@@H](CCCCN)C(=O)N[C@@H](CC(C)C)C(=O)N[C@@H](CCC(N)=O)C(=O)N[C@@H](CC(=O)O)C(=O)N[C@H](C(=O)N[C@@H](Cc1cnc[nH]1)C(=O)N[C@@H](CC(N)=O)C(=O)N[C@@H](Cc1ccccc1)C(=O)O)C(C)C)C(C)C [teriparatide]
plasma cAMP levels ([3]; oral administration of 680 μg): increased plasma cAMP levels to a similar degree
plasma cAMP levels ([3]; subcutaneous administration of 20 μg): increased plasma cAMP levels to a similar degree
